# Experimental data reported in US20150344485A1, “BICYCLIC PYRIMIDONE COMPOUNDS AS INHIBITORS OF LP-PLA2” (GLAXOSMITHKLINE INTELLECTUAL PROPERTY DEVELOPMENT LIMITED, priority 2013, published 2015).
# Like-named read-outs stand apart in the source and are kept apart here.
# What was measured:
# Lp-PLA2 in human plasma = molecular target: T1, Lp-PLA2 in human plasma (Homo sapiens, UniProt Q13093); assay: Lp-PLA2 human plasma assay (Thio-PAF assay); assay type: biochemical; conditions: pooled human plasma; read-out: pIC50 values in the thio-PAF assay (converted)
# T1 construct: from tissue; host or cells: pooled human plasma
# T1 sequence (Q13093 22-441): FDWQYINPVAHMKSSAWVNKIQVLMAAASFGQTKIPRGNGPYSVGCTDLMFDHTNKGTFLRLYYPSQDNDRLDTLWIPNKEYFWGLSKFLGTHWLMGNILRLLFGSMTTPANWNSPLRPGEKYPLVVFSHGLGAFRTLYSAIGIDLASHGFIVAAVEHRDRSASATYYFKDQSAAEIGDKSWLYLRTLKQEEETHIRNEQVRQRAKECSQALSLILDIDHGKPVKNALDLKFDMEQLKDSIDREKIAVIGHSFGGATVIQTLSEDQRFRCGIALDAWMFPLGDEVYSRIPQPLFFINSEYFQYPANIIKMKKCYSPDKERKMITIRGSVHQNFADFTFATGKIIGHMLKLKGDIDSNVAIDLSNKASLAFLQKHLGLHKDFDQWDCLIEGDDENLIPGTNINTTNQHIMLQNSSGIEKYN
# Source text: The human plasma assay utilizes a thioester analog of PAF (phosphatidylcholine), where hydrolysis yields to the formation of a phospholipid containing a free thiol group. The amount of thiol is quantitated continuously by reacting with CPM (7-diethylamino-3-(4′-maleimidylphenyl)-4-methylcoumarin), a maleimide which increases in fluoresence after Michael addition of thiols. This assay may detect the activity of Lp-PLA2 in human plasma, as determined by specific inhibition by Lp-PLA2 inhibitors.
# The thio-PAF assay was run as a quenched 15 μL assay. Compounds source plate was prepared by making 1:3 (by volume) serial dilution of the compounds into pure DMSO on 384-well microplate. 0.01 μL of compounds on compound source plate were transferred to 384 well Greiner 784076 (black) low-volume plates by ECHO liquid dispenser. 8 μL pooled human plasma, which was previously aliquoted and frozen, was added. Plates were centrifuged for 10 sec at 500 rpm. After 30 minutes preincubation, 2 μL of substrate solution comprising 2.5 mM 2-thio-PAF [from ethanol stock], 32 μM CPM [from a DMSO stock] and 3.2 mM NEM (N-ethylmaleimide) [made fresh daily in DMSO] in assay buffer of 50 mM HEPES, pH 7.4, 150 mM NaCl, 1 mM CHAPS was added to 384 well Greiner 784076 (black) low-volume plates by BRAVO liquid handling station. After 2 mins, reaction was quenched with 5 μL of 5% aqueous trifluoroacetic acid (TFA). Plates were covered to protect from light and incubated for 40 min at room temperature. Plates were read at ex: 380/em: 485 using-Envision microplate reader. pIC50 data, curve and QC analysis was conducted by using XLFit module in Excel.
# [1] = molecular target: T2, recombinant human Lp-PLA2 (Homo sapiens, UniProt Q13093); assay: Recombinant human Lp-PLA2 assay (rhLp-PLA2, PED6 assay); assay type: biochemical
# T2 sequence (Q13093 22-441): T1 sequence (Q13093 22-441)
# Source text: (1) Recombinant Human Lp-PLA2 Assay (rhLp-PLA2) (Also Referred to as “PED6” Assay)
# N-((6-(2,4-dinitrophenyl)amino)-hexanoyl)-2-(4,4-difluoro-5,7-dimethyl-4-bora-3a,4a-diaza-s-indacene-3-pentanoyl)-1-hexadecanoyl-sn-glycero-3-phosphoethanolamine, triethylammonium salt (PED6) is a commercially available fluorescently-labeled phospholipid, which is commercially available from Invitrogene and Molecular Probes. There is a quenching para-nitro phenyl (PNP) group in the sn3 position and a Bodipy fluorescein (FL) group in the sn2 position. Upon cleavage with Lp-PLA2, the Bodipy FL group is liberated and then may result in an increase in fluorescence. Inhibitors of Lp-PLA2 therefore prevent this cleavage and no fluorescent increase is observed.
# The PED6 assay was run as an unquenched 10 μL assay. The source plate containing the compounds to be tested was prepared by making 1:3 (by volume) serial dilution of the compounds within DMSO on 384-well microplate. Then, 0.01 μL of the compounds on compound source plate were transferred into 384 well Greiner 784076 (black) plates using ECHO liquid dispenser. 5 μL of recombinant human Lp-PLA2 enzyme (4 nM (or 110 pM) rhLp-PLA2 in assay buffer of 50 mM HEPES, pH 7.4, 150 mM NaCl, 1 mM CHAPS) was added to each well of the plate. Plates were centrifuged for 10 sec at 500 rpm. After 30 minutes preincubation, 5 μL of substrate (4 μM (or 5 μM) PED6 [from 5 mM DMSO stock] in assay buffer of 50 mM HEPES, pH 7.4, 150 mM NaCl, 1 mM CHAPS) was added to 384 well Greiner 784076 (black) plates. Plates were centrifuged for 10 sec at 500 rpm. The plate was covered to protect it from light and incubated for 20 min at room temperature. The plates were read for fluorescence intensity at ex: 480/em: 540 using ViewLux microplate imager for Envision spectrofluroimeters. pIC50 data, curve and QC analysis was conducted by using XL fit module in Excel.
# [2] = read-out: pIC50 values in the recombinant human Lp-PLA2 assay (converted)
# [3] = read-out: rhLp-PLA2 (PED6 assay) (pIC50) (converted)
SMILES,IC50 (Lp-PLA2 in human plasma) [nM],"IC50 [1, 2] [nM]","IC50 [1, 3] [nM]"
"C[C@H]1CCn2c(cc(OCc3ccc(Oc4ccc(C(F)(F)F)nc4)c(C#N)c3)nc2=O)N1C [E113, (S)-5-(((1,2-dimethyl-6-oxo-2,3,4,6-tetrahydro-1H-pyrimido[1,6-a]pyrimidin-8-yl)oxy)methyl)-2-((6-(trifluoromethyl)pyridin-3-yl)oxy)benzonitrile]",≤ 100,≤ 1,
"CC1CCn2c(cc(OCc3ccc(Oc4ccc(F)c(F)c4)c(F)c3)nc2=O)N1 (stereo not shown) [E3, 8-((4-(3,4-difluorophenoxy)-3-fluorobenzyl)oxy)-2-methyl-3,4-dihydro-1H-pyrimido[1,6-a]pyrimidin-6(2H)-one]",≤ 100,≤ 1,
"C[C@@H]1CCn2c(cc(OCc3ccc(Oc4ccc(F)c(F)c4)c(C#N)c3)nc2=O)N1C [E114, (R)-2-(3,4-difluorophenoxy)-5-(((1,2-dimethyl-6-oxo-2,3,4,6-tetrahydro-1H-pyrimido[1,6-a]pyrimidin-8-yl)oxy)methyl)benzonitrile]",≤ 10,≤ 1,
"C[C@@H]1CCn2c(cc(OCc3ccc(Oc4cncc(C(F)(F)F)c4)c(F)c3)nc2=O)N1C [E149, (R)-8-((3-fluoro-4-((5-(trifluoromethyl)pyridin-3-yl)oxy)benzyl)oxy)-1,2-dimethyl-3,4-dihydro-1H-pyrimido[1,6-a]pyrimidin-6(2H)-one]",≤ 10,≤ 1,
"CC1CCn2c(cc(OCc3ccc(Oc4ccc(Cl)c(F)c4)c(C#N)c3)nc2=O)N1 (stereo not shown) [E6, 2-(4-chloro-3-fluorophenoxy)-5-(((2-methyl-6-oxo-2,3,4,6-tetrahydro-1H-pyrimido[1,6-a]pyrimidin-8-yl)oxy)methyl)benzonitrile]",≤ 100,≤ 1,
"C[C@H]1CCn2c(cc(OCc3cc(F)c(Oc4ccnc(C(F)(F)F)c4)c(F)c3)nc2=O)N1C [E146, (S)-8-((3,5-difluoro-4-((2-(trifluoromethyl)pyridin-4-yl)oxy)benzyl)oxy)-1,2-dimethyl-3,4-dihydro-1H-pyrimido[1,6-a]pyrimidin-6(2H)-one]",≤ 10,≤ 1,0.0158
"CC1CCn2c(cc(OCc3ccc(F)c(F)c3)nc2=O)N1 (stereo not shown) [E4, 8-((3,4-difluorobenzyl)oxy)-2-methyl-3,4-dihydro-1H-pyrimido[1,6-a]pyrimidin-6(2H)-one]",≤ 100,,3.16
"C[C@@H]1CCn2c(cc(OCc3cc(F)c(Oc4cnc(C(F)(F)F)nc4)c(F)c3)nc2=O)N1C [E97, (R)-8-((3,5-difluoro-4-((2-(trifluoromethyl)pyrimidin-5-yl)oxy)benzyl)oxy)-1,2-dimethyl-3,4-dihydro-1H-pyrimido[1,6-a]pyrimidin-6(2H)-one]",≤ 10,≤ 1,0.1
"C[C@@H]1CCn2c(cc(OCc3cc(F)c(Oc4ccc(Cl)cc4)c(F)c3)nc2=O)N1C [E124, (R)-8-((4-(4-chlorophenoxy)-3,5-difluorobenzyl)oxy)-1,2-dim ethyl-3,4-dihydro-1H-pyrimido[1,6-a]pyrimidin-6(2H)-one]",≤ 100,≤ 1,
"CN1c2cc(OCc3cc(F)c(F)c(F)c3)nc(=O)n2CCC1(C)C [E54, 1,2,2-trimethyl-8-((3,4,5-trifluorobenzyl)oxy)-3,4-dihydro-1H-pyrimido[1,6-a]pyrimidin-6(2H)-one]",≤ 100,≤ 1,
C[C@@H]1CCn2c(cc(OCc3ccc(Oc4ccc(C(F)(F)F)cc4)c(C#N)c3)nc2=O)N1C [E78],≤ 100,≤ 1,
"[2H]C([2H])(Oc1cc2n(c(=O)n1)CCC(C)(C)N2C)c1cc(F)cc(F)c1 [E75, 8-((3,5-difluorophenyl)dideuteromethoxy)-1,2,2-trimethyl-3,4-dihydro-1H-pyrimido[1,6-a]pyrimidin-6(2H)-one]",≤ 100,≤ 1,
"C[C@@H]1CCn2c(cc(OCc3ccc(Oc4ccnc(C(F)(F)F)c4)c(F)c3)nc2=O)N1C [E147, (R)-8-((3-fluoro-4-((2-(trifluoromethyl)pyridin-4-yl)oxy)benzyl)oxy)-1,2-dimethyl-3,4-dihydro-1H-pyrimido[1,6-a]pyrimidin-6(2H)-one]",≤ 10,≤ 1,
"C[C@@H]1CCn2c(cc(OCc3ccc(Oc4ccc(F)cc4)c(C#N)c3)nc2=O)N1C [E125, (R)-5-(((1,2-dimethyl-6-oxo-2,3,4,6-tetrahydro-1H-pyrimido[1,6-a]pyrimidin-8-yl)oxy)methyl)-2-(4-fluorophenoxy)benzonitrile]",≤ 100,≤ 1,
"C[C@H]1CCn2c(cc(OCc3cc(F)c(Oc4ccc(F)c(F)c4)c(F)c3)nc2=O)N1C [E90, (S)-8-((4-(3,4-difluorophenoxy)-3,5-difluorobenzyl)oxy)-1,2-dimethyl-3,4-dihydro-1H-pyrimido[1,6-a]pyrimidin-6(2H)-one]",≤ 10,≤ 1,
"[2H]C([2H])(Oc1cc2n(c(=O)n1)CCC(C)(C)N2C)c1cc(F)c(F)cc1F [E71, 8-(dideutero(2,4,5-trifluorophenyl)methoxy)-1,2,2-trimethyl-3,4-dihydro-1H-pyrimido[1,6-a]pyrimidin-6(2H)-one]",≤ 100,≤ 1,
"C[C@H]1CCn2c(cc(OCc3ccc(Oc4ccc(C(F)(F)F)c(F)c4)cc3)nc2=O)N1C [E105, (S)-8-((4-(3-fluoro-4-(trifluoromethyl)phenoxy)benzyl)oxy)-1,2-dimethyl-3,4-dihydro-1H-pyrimido[1,6-a]pyrimidin-6(2H)-one]",≤ 100,≤ 1,
"C[C@H]1CCn2c(cc(OCc3cc(F)c(F)c(F)c3)nc2=O)N1C [E35, (S)-1,2-dimethyl-8-((3,4,5-trifluorobenzyl)oxy)-3,4-dihydro-1H-pyrimido[1,6-a]pyrimidin-6(2H)-one]",≤ 100,≤ 1,
C[C@H]1CCn2c(cc(OCc3cc(F)c(Oc4cccc(F)c4)c(F)c3)nc2=O)N1C [E96],≤ 100,≤ 1,
"C[C@H]1CCn2c(cc(OCc3cc(F)c(Oc4ccc(Cl)cc4)c(F)c3)nc2=O)N1C [E95, (S)-8-((4-(4-chlorophenoxy)-3,5-difluorobenzyl)oxy)-1,2-dimethyl-3,4-dihydro-1H-pyrimido[1,6-a]pyrimidin-6(2H)-one]",≤ 100,≤ 1,
"C[C@H]1CCn2c(cc(OCc3ccc(Oc4ccc(F)c(F)c4)c(F)c3)nc2=O)N1C [E86, (S)-8-((4-(3,4-difluorophenoxy)-3-fluorobenzyl)oxy)-1,2-dimethyl-3,4-dihydro-1H-pyrimido[1,6-a]pyrimidin-6(2H)-one]",≤ 100,≤ 1,
"C[C@H]1CCn2c(cc(OCc3ccc(Oc4ccc(F)c(Cl)c4)c(C#N)c3)nc2=O)N1C [E85, (S)-2-(3-chloro-4-fluorophenoxy)-5-(((1,2-dimethyl-6-oxo-2,3,4,6-tetrahydro-1H-pyrimido[1,6-a]pyrimidin-8-yl)oxy)methyl)benzonitrile]",≤ 10,≤ 1,
